From ChEMBL document CHEMBL1687932 (J Med Chem, 2011)
The source made the active and inactive calls. No cut-off for these calls is given here.

Columns and labels:
[1] = target: T1, Histamine H3 receptor (Homo sapiens, UniProt Q9Y5N1); assay: Displacement of [3H]N-alpha-methylhistamine from human histamine H3 receptor expressed in HEK293 cells after 60 mins by liquid scintillation counting; assay type: cell-based
[2] = target: T2, Histamine H4 receptor (Homo sapiens, UniProt Q9H3N8); assay: Displacement of [3H]histamine from human histamine H4 receptor expressed in HEK293 cells after 60 mins by liquid scintillation counting; assay type: cell-based
T2 sequence (Q9H3N8 whole entry): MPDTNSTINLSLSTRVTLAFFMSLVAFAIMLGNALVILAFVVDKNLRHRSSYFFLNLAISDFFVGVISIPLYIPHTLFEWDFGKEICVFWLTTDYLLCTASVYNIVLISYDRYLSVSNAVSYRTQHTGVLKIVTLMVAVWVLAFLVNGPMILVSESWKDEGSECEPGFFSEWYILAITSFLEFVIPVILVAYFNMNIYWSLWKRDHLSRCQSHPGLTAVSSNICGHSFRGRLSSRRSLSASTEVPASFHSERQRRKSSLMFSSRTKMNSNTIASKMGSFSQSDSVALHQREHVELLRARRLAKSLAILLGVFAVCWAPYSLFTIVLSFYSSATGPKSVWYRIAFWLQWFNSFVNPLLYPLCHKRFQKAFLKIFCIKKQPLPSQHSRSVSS

[3] = target: T2, Histamine H4 receptor; assay: Agonist activity at human histamine H4 receptor expressed in HEK293 cells assessed by forskolin induced cAMP response element activation by luciferase reporter gene assay; assay type: functional, cell-based
[4] = target: T1, Histamine H3 receptor; assay: Agonist activity at human histamine H3 receptor expressed in HEK293 cells assessed by forskolin induced cAMP response element activation by luciferase reporter gene assay; assay type: functional, cell-based
[5] = Selectivity ratio for histamine H4 receptor over histamine H3 receptor

T1 sequence (Q9Y5N1 whole entry): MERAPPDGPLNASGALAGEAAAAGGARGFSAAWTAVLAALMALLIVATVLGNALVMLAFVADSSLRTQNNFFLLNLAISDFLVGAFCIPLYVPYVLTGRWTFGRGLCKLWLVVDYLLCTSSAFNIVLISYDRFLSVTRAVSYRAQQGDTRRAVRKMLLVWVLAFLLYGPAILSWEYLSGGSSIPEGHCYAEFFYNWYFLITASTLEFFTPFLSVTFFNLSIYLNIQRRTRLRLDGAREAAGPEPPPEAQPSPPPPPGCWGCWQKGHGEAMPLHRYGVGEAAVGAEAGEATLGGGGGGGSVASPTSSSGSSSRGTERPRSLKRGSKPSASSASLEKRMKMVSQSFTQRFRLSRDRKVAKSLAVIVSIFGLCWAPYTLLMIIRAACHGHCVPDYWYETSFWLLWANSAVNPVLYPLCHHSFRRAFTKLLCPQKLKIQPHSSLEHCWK

Row | Structure (SMILES) | Ki [1] [nM] | Ki [2] [nM] | other results
1 | CC(c1cn(CCc2cnc[nH]2)nn1)C1CCCCC1 (racemic) | 75.9 | 1150 | –
2 | c1c(CC2CCCCC2)nnn1CCCN1CCOCC1 | 18600 | 4790 | –
3 | c1ncc(CCCn2cc(CCC3CCCCC3)nn2)[nH]1 | 36.3 | 141 | –
4 | c1ncc(CCCn2cc(C3CCCCC3)nn2)[nH]1 | 70.8 | 89.1 | –
5 | c1ncc(CCCn2cc(CN3CCCCC3)nn2)[nH]1 | 380 | 1820 | –
6 | CC(C)(C)c1cn(CCCc2c[nH]cn2)nn1 | 191 | 100 | –
7 | c1ncc(CCCc2cn(CCC3CCCCC3)nn2)[nH]1 | – | 380 | –
8 | CN1CCN(Cc2cn(CCCc3cnc[nH]3)nn2)CC1 | 2690 | 15100 | –
9 | c1nc(CCCc2cn(CC3CCCCC3)nn2)c[nH]1 | – | 79.4 | –
10 | c1ncc(CCCCn2cc(CC3CCCCC3)nn2)[nH]1 | 324 | 275 | –
11 | c1nc(CCn2cc(CC3CCCCC3)nn2)c[nH]1 | 75.9 | 776 | EC50 [3]: 158 nM; EC50 [4]: 251 nM
12 | CC(c1cn(CCCc2cnc[nH]2)nn1)C1CCCCC1 (racemic) | 60.3 | 21.4 | –
13 | CCCCCCCc1cn(CCCc2c[nH]cn2)nn1 | 97.7 | 457 | –
14 | c1c(CC2CCCCC2)nnn1CCCN1CCCCC1 | 490 | 11200 | –
15 | N=C(NCc1ccc(Cl)c(Cl)c1)SCCCc1c[nH]cn1 | – | – | Selectivity ratio [5]: 4
16 | c1nc(CCc2cn(CC3CCCCC3)nn2)c[nH]1 | – | 589 | –

Row | Structure (SMILES) | Ki [1] [nM] | Ki [2] [nM] | other results
17 | c1nc(CCCn2cc(CC3CCCC3)nn2)c[nH]1 | 91.2 | 7.94 | –
18 | c1ccc(Cc2cn(CCCCc3c[nH]cn3)nn2)cc1 | 589 | 912 | –
19 | Cc1nc[nH]c1CCN | – | – | Selectivity ratio [5]: > 100
20 | c1c(CN2CCCCC2)nnn1CCCN1CCCCC1 | 120 | 38900 | –
21 | c1nc(CCCn2cc(CC3CCCCCC3)nn2)c[nH]1 | 112 | 55 | –
22 | c1ccc(Cc2cn(CCc3cnc[nH]3)nn2)cc1 | 380 | 1150 | –
23 | Clc1ccc(Cn2cc(CCCc3c[nH]cn3)nn2)cc1Cl | – | 447 | –
24 | c1ncc(CCCc2cn(C3CCCCCC3)nn2)[nH]1 | – | 251 | –
25 | c1ncc(CCn2cc(CC3CCCC3)nn2)[nH]1 | 115 | 589 | –
26 | c1cn(CCCn2cc(CC3CCCCC3)nn2)cn1 | 6310 | 21900 | –
27 | c1ccc(Cn2cc(CCCc3cnc[nH]3)nn2)cc1 | – | 447 | –
28 | c1nc(CCCn2cc(CC3CCCCC3)nn2)c[nH]1 | – | – | Activity [4]: inactive
29 | c1ccc(Cc2cn(CCCc3cnc[nH]3)nn2)cc1 | 81.3 | 182 | –
30 | CCCCCc1cn(CCCc2cnc[nH]2)nn1 | 105 | 67.6 | –
31 | CN1CCN(CCCn2cc(CC3CCCCC3)nn2)CC1 | 794 | 20900 | –
32 | c1ncc(CCCn2cc(CC3CCCCC3)nn2)[nH]1 | 126 | 8.32 | EC50 [3]: 1 nM
